For 15 compounds, IC50 results are on record in patent US20240360178A1, “MACROCYCLIC IMMUNOMODULATORS” (Bristol-Myers Squibb Company, priority 2021, published 2024).

Positions of bridges follow the written chain, without caps; N, C: chain ends. Non-standard residues stand in square brackets, D forms with d. Residues, ends and D or L forms follow the SMILES beside them. *: point of attachment. Tyr(3-NO2) = N[C@@H](Cc1ccc(O)c([N+](=O)[O-])c1)C(=O)O; Phe(4-COOH) = N[C@@H](Cc1ccc(C(=O)O)cc1)C(=O)O; Bip = N[C@@H](Cc1ccc(-c2ccccc2)cc1)C(=O)O; Phe(3-Me) = Cc1cccc(C[C@H](N)C(=O)O)c1; Val(3-OH) = CC(C)(O)[C@H](N)C(=O)O; NMeF = CN[C@@H](Cc1ccccc1)C(=O)O; 4Pal = N[C@@H](Cc1ccncc1)C(=O)O; Cha = N[C@@H](CC1CCCCC1)C(=O)O; NMeN = CN[C@@H](CC(N)=O)C(=O)O; NMeL = CN[C@@H](CC(C)C)C(=O)O; Carboxymethyl = O=C(O)C*; NMeA = CN[C@@H](C)C(=O)O; Nle = CCCC[C@H](N)C(=O)O; dNMeA = CN[C@H](C)C(=O)O; Dab = NCC[C@H](N)C(=O)O; Sar = CNCC(=O)O

This test addresses T1, human PD-1 (Jurkat-PD-1 cells) / PE-labeled human PD-L1-Ig (Homo sapiens, UniProt Q15116).
T1 construct: expressed in transfected cells; host or cells: Jurkat cell line over-expressing human PD-1
Nature of the test: Jurkat-PD-1 Cell Binding High-Content Screening Assay (CBA); Jurkat hPD1-PDL1 assay. To be noted: Jurkat cell line over-expressing human PD-1; PE-labeled PD-L1-Ig 20 nM final; compound incubated 2 hours at 37° C.; read-out: Jurkat HPD1-PDL1 IC50. The method, boiled down: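 Compound was added to Jurkat-PD-1 cells in DMEM plus 10% fetal calf serum and incubated 2 hours at 37° C. Binding of phycoerythrin-conjugated PD-L1-Ig (20 nM final) to the cells was imaged.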

T1 sequence (Q15116 25-288): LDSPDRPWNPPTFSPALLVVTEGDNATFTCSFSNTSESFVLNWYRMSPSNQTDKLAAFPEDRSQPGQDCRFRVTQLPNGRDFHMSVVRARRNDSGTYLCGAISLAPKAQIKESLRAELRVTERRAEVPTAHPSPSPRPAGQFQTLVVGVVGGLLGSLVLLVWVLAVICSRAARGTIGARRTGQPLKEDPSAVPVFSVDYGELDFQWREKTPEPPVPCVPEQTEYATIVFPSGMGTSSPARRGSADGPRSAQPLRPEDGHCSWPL

The term IC50 denotes the concentration that inhibits the measured activity by half. Regarding `CC(C)C[C@@H]1NC(=O)[C@H](CCCNC(=N)N)NC(=O)[C@H](Cc2ccccc2)N(C)C(=O)[C@H](C)N(C)C(=O)[C@H](CCCNC(=N)N)NC(=O)[C@H](Cc2ccc(-c3ccccc3)cc2)NC(=O)[C@H](C(C)C)NC(=O)[C@H](Cc2c[nH]c3ccccc23)NC(=O)[C@H](CC(=O)O)NC(=O)[C@H](Cc2ccc(OCC(=O)O)cc2)NC(=O)[C@H](Cc2ccc(C(=O)O)cc2)NC(=O)CSC[C@@H](C(=O)NCC(N)=O)NC(=O)[C@H](CO)NC(=O)[C@H](C(C)C)NC1=O` [Example 1300] ({CH2CO}-[Phe(4-COOH)]Y(Carboxymethyl)DWV[Bip]R[NMeA][NMeF]RLVSCG-NH2; thioether N-14), the IC50 worked out at 120 nM. Then `CC(C)C[C@@H]1NC(=O)[C@H](Cc2c[nH]c3ccccc23)NC(=O)[C@H](CC(=O)O)NC(=O)[C@H](Cc2ccc(O)c([N+](=O)[O-])c2)NC(=O)[C@H](Cc2ccccc2)NC(=O)CSC[C@@H](C(=O)N[C@@H](C)C(N)=O)NC(=O)[C@H](CO)NC(=O)[C@H](C(C)C)NC(=O)[C@H](CC(C)C)NC(=O)[C@H](CC(N)=O)NC(=O)CN(C)C(=O)[C@H](C)N(C)C(=O)[C@H](C(C)C)NC(=O)[C@H](Cc2ccc(-c3ccccc3)cc2)NC1=O` [Example 1087] ({CH2CO}-F[Tyr(3-NO2)]DWL[Bip]V[NMeA][Sar]NLVSCA-NH2; thioether N-14), with 250 nM; and `CC(C)C[C@@H]1NC(=O)[C@H](Cc2c[nH]c3ccccc23)NC(=O)[C@H](CC(=O)O)NC(=O)[C@H](Cc2ccc(OCC(=O)O)cc2)NC(=O)[C@H](Cc2ccncc2)NC(=O)CSC[C@@H](C(=O)N[C@@H](C)C(N)=O)NC(=O)[C@H](CO)NC(=O)[C@H](C(C)C)NC(=O)[C@H](CC(C)C)NC(=O)[C@H](CC(N)=O)NC(=O)[C@H]2CCCN2C(=O)[C@H](C)N(C)C(=O)[C@H](C(C)C)NC(=O)[C@H](Cc2ccc(-c3ccccc3)cc2)NC1=O` [Example 1391] ({CH2CO}-[4Pal]Y(Carboxymethyl)DWL[Bip]V[NMeA][dP]NLVSCA-NH2; thioether N-14), with 40 nM.

Regarding `CC(C)C[C@@H]1NC(=O)[C@H](C)NC(=O)[C@H]2CCCN2C(=O)[C@H](C)N(C)C(=O)[C@H](CCC(=O)O)NC(=O)[C@H](Cc2ccc(-c3ccccc3)cc2)NC(=O)[C@H](CC(C)C)NC(=O)[C@H](Cc2c[nH]c3ccccc23)NC(=O)[C@H](CC(=O)O)NC(=O)[C@H](Cc2ccc(O)cc2)NC(=O)[C@H](Cc2ccccc2)NC(=O)CSC[C@@H](C(=O)N[C@@H](C)C(N)=O)NC(=O)[C@H](CO)NC(=O)[C@H](C(C)C)NC1=O` [Example 1028] ({CH2CO}-FYDWL[Bip]E[NMeA][dP]ALVSCA-NH2; thioether N-14), the concentration for half-maximal inhibition (IC50) worked out at 50 nM. With `CC(C)C[C@@H]1NC(=O)[C@H](CCCNC(=N)N)NC(=O)[C@H](Cc2ccccc2)N(C)C(=O)[C@@H](C)NC(=O)[C@H](CCCNC(=N)N)NC(=O)[C@H](Cc2ccc(-c3ccccc3)cc2)NC(=O)[C@H](C(C)C)NC(=O)[C@H](Cc2c[nH]c3ccccc23)NC(=O)[C@H](CC(=O)O)NC(=O)[C@H](Cc2ccc(O)cc2)NC(=O)[C@H](CC(N)=O)NC(=O)CSC[C@@H](C(=O)N[C@@H](C)C(N)=O)NC(=O)[C@H]([C@@H](C)O)NC(=O)[C@H](C(C)C)NC1=O` [Example 1363] ({CH2CO}-NYDWV[Bip]R[dA][NMeF]RLVTCA-NH2; thioether N-14), the half-maximal inhibitory concentration (IC50) amounted to 940 nM. Then `CC(C)C[C@@H]1NC(=O)[C@H](Cc2c[nH]c3ccccc23)NC(=O)[C@H](CC(=O)O)NC(=O)[C@H](Cc2ccc(OCC(=O)O)cc2)NC(=O)[C@H](Cc2ccncc2)NC(=O)CSC[C@@H](C(=O)N[C@@H](CCN)C(N)=O)NC(=O)[C@H](CO)NC(=O)[C@H](C(C)(C)O)NC(=O)[C@H](CC2CCCCC2)NC(=O)[C@H](CCN)NC(=O)[C@H]2CCCN2C(=O)[C@H](C)N(C)C(=O)[C@H](C(C)C)NC(=O)[C@H](Cc2ccc(-c3ccccc3)cc2)NC1=O` [Example 1185] ({CH2CO}-[4Pal]Y(Carboxymethyl)DWL[Bip]V[NMeA][dP][Dab][Cha][Val(3-OH)]SC[Dab]-NH2; thioether N-14), with 30 nM. In the case of `CC(C)C[C@@H]1NC(=O)[C@H](CC(N)=O)NC(=O)CN(C)C(=O)[C@H](C)N(C)C(=O)[C@H](C(C)C)NC(=O)[C@H](Cc2ccc(-c3ccccc3)cc2)NC(=O)[C@H](Cc2ccc(O)cc2)NC(=O)[C@H](Cc2c[nH]c3ccccc23)NC(=O)[C@H](CC(=O)O)NC(=O)[C@H](Cc2ccc(O)cc2)NC(=O)[C@H](Cc2ccccc2)NC(=O)CSC[C@@H](C(=O)NCC(N)=O)NC(=O)[C@H](CO)NC(=O)[C@H](C(C)C)NC1=O` [Example 1224] ({CH2CO}-FYDWY[Bip]V[NMeA][Sar]NLVSCG-NH2; thioether N-14), the IC50 was 160 nM. As for `CCCC[C@@H]1NC(=O)[C@H](C(C)C)NC(=O)[C@H](Cc2ccccc2)N(C)C(=O)[C@H](CC(=O)O)NC(=O)[C@H](CCCNC(=N)N)NC(=O)[C@H](Cc2ccc(-c3ccccc3)cc2)NC(=O)[C@H](C(C)C)NC(=O)[C@H](Cc2c[nH]c3ccccc23)NC(=O)[C@H](CC(=O)O)NC(=O)[C@H](Cc2ccc(O)cc2)NC(=O)[C@H](Cc2ccccc2)NC(=O)CSC[C@@H](C(=O)NCC(N)=O)NC(=O)[C@H](CO)NC(=O)[C@H](C(C)C)NC1=O` [Example 1227] ({CH2CO}-FYDWV[Bip]RD[NMeF]V[Nle]VSCG-NH2; thioether N-14), the IC50 was 650 nM. The result for `CC(C)C[C@@H]1NC(=O)[C@H](Cc2c[nH]c3ccccc23)NC(=O)[C@H](CC(=O)O)NC(=O)[C@H](Cc2ccc(O)cc2)NC(=O)[C@H](Cc2ccccc2)NC(=O)CSC[C@@H](C(=O)NCC(N)=O)NC(=O)[C@H](CO)NC(=O)[C@H](C(C)C)NC(=O)[C@H](CC(C)C)NC(=O)[C@H](CC(N)=O)NC(=O)[C@@H](C)N(C)C(=O)[C@H](C)N(C)C(=O)[C@H](C(C)C)NC(=O)[C@H](Cc2ccc(-c3ccccc3)cc2)NC1=O` [Example 1082] ({CH2CO}-FYDWL[Bip]V[NMeA][dNMeA]NLVSCG-NH2; thioether N-14) reads 230 nM; that for `CC(C)C[C@@H]1NC(=O)[C@H](CCCNC(=N)N)NC(=O)[C@H](Cc2ccccc2)N(C)C(=O)[C@H](C)N(C)C(=O)[C@H](CCCNC(=N)N)NC(=O)[C@H](Cc2ccc(-c3ccccc3)cc2)NC(=O)[C@H](C(C)C)NC(=O)[C@H](Cc2c[nH]c3ccccc23)NC(=O)[C@H](CC(=O)O)NC(=O)[C@H](Cc2ccc(O)cc2)NC(=O)[C@H](Cc2cnc[nH]2)NC(=O)CSC[C@@H](C(=O)N[C@@H](C)C(N)=O)NC(=O)[C@H](CO)NC(=O)[C@H](C(C)C)NC1=O` [Example 1302] ({CH2CO}-HYDWV[Bip]R[NMeA][NMeF]RLVSCA-NH2; thioether N-14), 350 nM; that for `CC(C)C[C@@H]1NC(=O)[C@H](Cc2c[nH]c3ccccc23)NC(=O)[C@H](CC(=O)O)NC(=O)[C@H](Cc2ccc(O)cc2)NC(=O)[C@H](Cc2ccccc2)NC(=O)CSC[C@@H](C(=O)NCC(N)=O)NC(=O)[C@H](CO)NC(=O)[C@H](C(C)C)NC(=O)[C@H](CC(C)C)NC(=O)[C@H](CC(N)=O)NC(=O)[C@H](CC(N)=O)N(C)C(=O)[C@H](C)N(C)C(=O)[C@H](C(C)C)NC(=O)[C@H](Cc2ccc(-c3ccccc3)cc2)NC1=O` [Example 1148] ({CH2CO}-FYDWL[Bip]V[NMeA][NMeN]NLVSCG-NH2; thioether N-14), 670 nM.

For the compound `CC(C)C[C@@H]1NC(=O)[C@H](CCCNC(=N)N)NC(=O)[C@H](CC(C)C)N(C)C(=O)[C@H](C)N(C)C(=O)[C@H](CCCNC(=N)N)NC(=O)[C@H](Cc2ccc(-c3ccccc3)cc2)NC(=O)[C@H](C(C)C)NC(=O)[C@H](Cc2c[nH]c3ccccc23)NC(=O)[C@H](CC(=O)O)NC(=O)[C@H](Cc2ccc(O)cc2)NC(=O)[C@H](Cc2ccccc2)NC(=O)CSC[C@@H](C(=O)NCC(N)=O)NC(=O)[C@H](CO)NC(=O)[C@H](C(C)C)NC1=O` [Example 1281] ({CH2CO}-FYDWV[Bip]R[NMeA][NMeL]RLVSCG-NH2; thioether N-14), the IC50 is 460 nM. As to `CC(C)C[C@@H]1NC(=O)[C@H](CCCCN)NC(=O)[C@H](Cc2ccccc2)N(C)C(=O)[C@H](C)N(C)C(=O)[C@H](CCCNC(=N)N)NC(=O)[C@H](Cc2ccc(-c3ccccc3)cc2)NC(=O)[C@H](C(C)C)NC(=O)[C@H](Cc2c[nH]c3ccccc23)NC(=O)[C@H](CC(=O)O)NC(=O)[C@H](Cc2ccc(O)cc2)NC(=O)[C@H](CC(N)=O)NC(=O)CSC[C@@H](C(=O)N[C@@H](CCC(=O)O)C(N)=O)NC(=O)[C@H]([C@@H](C)O)NC(=O)[C@H](C(C)C)NC1=O` [Example 1360] ({CH2CO}-NYDWV[Bip]R[NMeA][NMeF]KLVTCE-NH2; thioether N-14), the IC50 turned out to be 570 nM. With `Cc1cccc(C[C@@H]2NC(=O)[C@H](CC(=O)O)NC(=O)[C@H](Cc3ccc(OCC(=O)O)cc3)NC(=O)[C@H](Cc3ccncc3)NC(=O)CSC[C@@H](C(=O)N[C@@H](CCN)C(N)=O)NC(=O)[C@H](CO)NC(=O)[C@H](C(C)(C)O)NC(=O)[C@H](CC3CCCCC3)NC(=O)[C@H](CCN)NC(=O)[C@H]3CCCN3C(=O)[C@H](C)N(C)C(=O)[C@H](Cc3ccc(OCC(=O)O)cc3)NC(=O)[C@H](Cc3ccc(-c4ccccc4)cc3)NC(=O)[C@H](Cc3ccc(OCC(=O)O)cc3)NC2=O)c1` [Example 1179] ({CH2CO}-[4Pal]Y(Carboxymethyl)D[Phe(3-Me)]Y(Carboxymethyl)[Bip]Y(Carboxymethyl)[NMeA][dP][Dab][Cha][Val(3-OH)]SC[Dab]-NH2; thioether N-14), the IC50 turned out to be 80 nM. In the case of `CC(C)C[C@@H]1NC(=O)[C@H](CCCNC(=N)N)NC(=O)[C@H](Cc2ccccc2)N(C)C(=O)[C@H](C)N(C)C(=O)[C@H](CCCNC(=N)N)NC(=O)[C@H](Cc2ccc(-c3ccccc3)cc2)NC(=O)[C@H](C(C)C)NC(=O)[C@H](Cc2c[nH]c3ccccc23)NC(=O)[C@H](CC(=O)O)NC(=O)[C@H](Cc2ccc(O)cc2)NC(=O)[C@H](Cc2cnc[nH]2)NC(=O)CSC[C@@H](C(=O)NCC(N)=O)NC(=O)[C@H](CO)NC(=O)[C@H](C(C)C)NC1=O` [Example 1058] ({CH2CO}-HYDWV[Bip]R[NMeA][NMeF]RLVSCG-NH2; thioether N-14), the 50% inhibitory concentration (IC50) worked out at 130 nM.
